Eight molecules from paper PMC3136713, “Health-Beneficial Phenolic Aldehyde in Antigonon leptopus Tea” (Evidence-based Complementary and Alternative Medicine : eCAM, 2010) can be followed below.

Assay [1] concerns the target T1, COX-1 (Ovis aries, UniProt P05979).
T1 construct: gene PTGS1
T1 sequence (P05979 25-600): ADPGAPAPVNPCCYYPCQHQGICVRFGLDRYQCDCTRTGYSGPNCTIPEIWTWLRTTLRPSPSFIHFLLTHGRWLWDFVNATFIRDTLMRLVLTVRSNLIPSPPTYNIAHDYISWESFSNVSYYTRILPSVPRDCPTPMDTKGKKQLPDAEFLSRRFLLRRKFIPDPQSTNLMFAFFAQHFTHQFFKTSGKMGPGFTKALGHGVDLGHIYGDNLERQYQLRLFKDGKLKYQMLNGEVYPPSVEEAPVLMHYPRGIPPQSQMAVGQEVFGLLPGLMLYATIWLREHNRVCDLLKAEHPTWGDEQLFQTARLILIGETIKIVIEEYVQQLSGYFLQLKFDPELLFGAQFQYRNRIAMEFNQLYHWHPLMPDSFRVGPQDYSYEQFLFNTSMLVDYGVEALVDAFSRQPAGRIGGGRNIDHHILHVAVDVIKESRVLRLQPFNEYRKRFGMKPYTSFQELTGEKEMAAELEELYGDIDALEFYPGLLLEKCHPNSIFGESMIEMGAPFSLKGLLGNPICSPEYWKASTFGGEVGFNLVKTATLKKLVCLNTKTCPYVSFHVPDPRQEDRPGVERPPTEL
Nature of the assay: O2 uptake cyclooxygenase assay, single concentration. Type of assay: biochemical. As to conditions: for inhibition at 100 µg/mL: read-out: % inhibition at 100 μg/mL.

The target of assay [2] is T2, COX-2 (Homo sapiens, UniProt P35354).
T2 construct: gene PTGS2
T2 sequence (P35354 18-604): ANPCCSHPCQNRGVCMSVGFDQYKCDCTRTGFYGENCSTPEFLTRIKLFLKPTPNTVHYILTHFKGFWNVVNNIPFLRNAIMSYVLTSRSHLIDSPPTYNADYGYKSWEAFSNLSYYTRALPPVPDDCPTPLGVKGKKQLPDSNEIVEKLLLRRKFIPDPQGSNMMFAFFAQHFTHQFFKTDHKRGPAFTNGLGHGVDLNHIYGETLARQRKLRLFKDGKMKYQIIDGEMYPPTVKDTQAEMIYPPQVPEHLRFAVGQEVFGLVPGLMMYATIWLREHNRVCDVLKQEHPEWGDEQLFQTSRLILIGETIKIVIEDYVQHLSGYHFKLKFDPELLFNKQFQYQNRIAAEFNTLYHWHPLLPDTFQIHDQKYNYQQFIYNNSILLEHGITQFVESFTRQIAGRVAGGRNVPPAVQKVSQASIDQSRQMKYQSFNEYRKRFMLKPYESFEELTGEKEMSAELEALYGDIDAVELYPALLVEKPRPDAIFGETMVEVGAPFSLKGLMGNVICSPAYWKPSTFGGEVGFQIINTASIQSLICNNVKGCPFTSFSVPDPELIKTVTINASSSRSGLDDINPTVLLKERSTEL
Nature of the assay: biochemical. The note with it: read-out: % inhibition at 32 nM.

Assay [3] addresses T2, COX-2. Nature of the assay: O2 uptake cyclooxygenase assay, single concentration. Type of assay: biochemical. As to conditions: read-out: % inhibition at 100 μg/mL.
Assay [4] addresses T1, COX-1. Nature of the assay: O2 uptake cyclooxygenase assay, ram seminal vesicle COX-1; […] inhibition at […]. The assay is classed as biochemical.

For the molecule `O=Cc1cccc(O)c1O` [compound 5, 2,3-dihydroxy benzaldehyde], in assay [1], the inhibition at 100 µg/mL is 68%.

For `CS(=O)(=O)c1ccc(C2=C(c3ccccc3)C(=O)OC2)cc1` [Vioxx], in assay [2], the inhibition at 0.032 µM turned out to be 91%.

As for `O=Cc1c(O)cc(O)cc1O` [compound 11, 2,4,6-trihydroxy benzaldehyde], the “% inhibition at 100 μg/mL” value in assay [1] stood at 86.

Regarding `COc1ccccc1C=O` [compound 14, Compound 14], the inhibition at 100 µg/mL in assay [1] was determined as 83%.

`O=Cc1cc(O)cc(O)c1` [compound 9, 3,5-dihydroxy benzaldehyde]: the inhibition at 100 µg/mL in assay [1] is 82%.

As to `O=Cc1cc(O)ccc1O` [compound 7, 2,5-dihydroxy benzaldehyde], in assay [3], the inhibition at 100 µg/mL was 61%.

`COc1cc(C=O)cc(OC)c1` [compound 21, Compound 21]: in assay [1], the inhibition at 100 µg/mL turned out to be 85%.

On to `CC(=O)Oc1ccccc1C(=O)O` [Aspirin], for which, in assay [4], the “% inhibition at 60 μM” value came to 69.
